Test results as given in patent publication US10058550B2, “Methods of treating heart failure” (priority 2015, dated 2018).
pEC50: −log10 of the molar value.

Biological target: human APJ receptor (Homo sapiens (Human), UniProt P35414)
Test: biochemical
Assay type: biochemical
Details: read-out: Activity hAPJ SPA EC50 IP
How it was run: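 Agonist-stimulated [35S]GTPγS (0.2 nM) binding was read by SPA after 90 min at room temperature. Buffer: 20 mM HEPES pH 7.5 with 5 mM MgCl2, 200 mM NaCl, 3 μM GDP, 0.1% BSA; membranes were from a stable human APJ CHO line. EC50 values are averages of independent runs, fitted by non-linear regression.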

Sequence of human APJ receptor (P35414 whole entry): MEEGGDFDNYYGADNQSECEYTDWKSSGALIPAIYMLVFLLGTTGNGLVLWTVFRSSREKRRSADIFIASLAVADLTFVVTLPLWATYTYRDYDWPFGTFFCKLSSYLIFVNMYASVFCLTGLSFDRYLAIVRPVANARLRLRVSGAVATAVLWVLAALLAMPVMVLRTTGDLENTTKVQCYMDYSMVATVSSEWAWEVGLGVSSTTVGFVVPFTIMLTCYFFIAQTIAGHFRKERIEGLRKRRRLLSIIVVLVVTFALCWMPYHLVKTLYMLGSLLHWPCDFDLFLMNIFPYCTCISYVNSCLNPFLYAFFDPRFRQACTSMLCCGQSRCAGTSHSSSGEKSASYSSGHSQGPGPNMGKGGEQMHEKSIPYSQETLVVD

Work on `COc1cc(-c2nnc(NS(=O)(=O)[C@@H](C)[C@H](C)c3ncc(C)cn3)n2-c2c(OC)cccc2OC)ccn1` [Example 84.0, (2S,3R)-N-(4-(2,6-dimethoxyphenyl)-5-(2-methoxypyridin-4-yl)-4H-1,2,4-triazol-3-yl)-3-(5-methylpyrimidin-2-yl)butane-2-sulfonamide] yielded a pEC50 of 8.28.

`COc1cccc(OC)c1-n1c(NS(=O)(=O)[C@@H](C)[C@H](C)c2ncc(C)cn2)nnc1-c1ccnc(C)c1` [Example 85.0, (2S,3R)-N-(4-(2,6-dimethoxyphenyl)-5-(2-methylpyridin-4-yl)-4H-1,2,4-triazol-3-yl)-3-(5-methylpyrimidin-2-yl)butane-2-sulfonamide] gave a pEC50 of 8.28.

Work on `COc1cncc(-c2nnc(NS(=O)(=O)[C@@H](C)[C@H](C)c3ncc(C)cn3)n2-c2c(OC)cccc2OC)c1` [Example 86.0, (2S,3R)-N-(4-(2,6-dimethoxyphenyl)-5-(5-methoxypyridin-3-yl)-4H-1,2,4-triazol-3-yl)-3-(5-methylpyrimidin-2-yl)butane-2-sulfonamide] yielded a pEC50 of 8.89.

`COc1cccc(OC)c1-n1c(NS(=O)(=O)[C@@H](C)[C@H](C)c2ncc(C)cn2)nnc1-c1cccc(C)n1` [Example 87.0, (2S,3R)-N-(4-(2,6-dimethoxyphenyl)-5-(6-methylpyridin-2-yl)-4H-1,2,4-triazol-3-yl)-3-(5-methylpyrimidin-2-yl)butane-2-sulfonamide] gave a pEC50 of 9.40.

`COc1cccc(OC)c1-n1c(NS(=O)(=O)[C@@H](C)[C@H](OC)c2ncc(Cl)cn2)nnc1-c1cccc(C)n1` [Example 88.0, (1R,2S)-1-(5-chloropyrimidin-2-yl)-N-(4-(2,6-dimethoxyphenyl)-5-(6-methylpyridin-2-yl)-4H-1,2,4-triazol-3-yl)-1-methoxypropane-2-sulfonamide] gave a pEC50 of 9.43.

Compound `COc1cccc(OC)c1-n1c(NS(=O)(=O)[C@H](C)[C@@H](OC)c2ncc(Cl)cn2)nnc1-c1cccc(C)n1` [Example 89.0, (1S,2R)-1-(5-chloropyrimidin-2-yl)-N-(4-(2,6-dimethoxyphenyl)-5-(6-methylpyridin-2-yl)-4H-1,2,4-triazol-3-yl)-1-methoxypropane-2-sulfonamide] has a pEC50 of 7.96.

Compound `COc1ncnc(OC)c1-n1c(NS(=O)(=O)[C@@H](C)[C@H](OC)c2ncc(C)cn2)nnc1-c1cccc(C)n1` [Example 90.0, (1R,2S)-N-(4-(4,6-dimethoxypyrimidin-5-yl)-5-(6-methylpyridin-2-yl)-4H-1,2,4-triazol-3-yl)-1-methoxy-1-(5-methylpyrimidin-2-yl)propane-2-sulfonamide] has a pEC50 of 8.62.

`COc1cccc(-c2nnc(NS(=O)(=O)C(C)C)n2-c2c(OC)cccc2OC)n1` [Example 100.0, N-(4-(2,6-dimethoxyphenyl)-5-(6-methoxypyridin-2-yl)-4H-1,2,4-triazol-3-yl)propane-2-sulfonamide] gave a pEC50 of 6.96.

`COc1cc(-c2nnc(NS(=O)(=O)[C@@H](C)[C@H](OC)c3ncc(C)cn3)n2-c2c(OC)cccc2OC)ccn1` [Example 101.0, (1R,2S)-N-(4-(2,6-dimethoxyphenyl)-5-(2-methoxypyridin-4-yl)-4H-1,2,4-triazol-3-yl)-1-methoxy-1-(5-methylpyrimidin-2-yl)propane-2-sulfonamide] gave a pEC50 of 8.15.

`COc1cccc(OC)c1-n1c(NS(=O)(=O)[C@@H](C)[C@H](OC)c2ncc(C)cn2)nnc1-c1ccncc1` [Example 102.0, (1R,2S)-N-(4-(2,6-dimethoxyphenyl)-5-(pyridin-4-yl)-4H-1,2,4-triazol-3-yl)-1-methoxy-1-(5-methylpyrimidin-2-yl)propane-2-sulfonamide] was tested, and the pEC50 was 7.74.

For `COc1cccc(OC)c1-n1c(NS(=O)(=O)[C@@H](C)[C@H](OC)c2ncc(C)cn2)nnc1-c1cccc(C)n1` [Example 103.0, (1R,2S)-N-(4-(2,6-dimethoxyphenyl)-5-(6-methylpyridin-2-yl)-4H-1,2,4-triazol-3-yl)-1-methoxy-1-(5-methylpyrimidin-2-yl)propane-2-sulfonamide], the pEC50 was 9.29.

In the case of `COc1cccc(OC)c1-n1c(NS(=O)(=O)[C@@H](C)[C@H](OC)c2ncc(C)cn2)nnc1-c1ccnc(C)c1` [Example 104.0, (1R,2S)-N-(4-(2,6-dimethoxyphenyl)-5-(2-methylpyridin-4-yl)-4H-1,2,4-triazol-3-yl)-1-methoxy-1-(5-methylpyrimidin-2-yl)propane-2-sulfonamide], the pEC50 was 8.62.

Work on `CCOc1cccc(-c2nnc(NS(=O)(=O)[C@@H](C)[C@H](C)c3ncc(F)cn3)n2-c2c(OC)cccc2OC)n1` [Example 161.0, (2S,3R)-N-(4-(2,6-dimethoxyphenyl)-5-(6-ethoxy-2-pyridinyl)-4H-1,2,4-triazol-3-yl)-3-(5-fluoro-2-pyrimidinyl)-2-butanesulfonamide] yielded a pEC50 of 10.21.

For `COc1cccc(OC)c1-n1c(NS(=O)(=O)[C@@H](C)[C@H](C)c2ncc(F)cn2)nnc1-c1cccc(=O)[nH]1` [Example 168.0, (2S,3R)-N-(4-(2,6-dimethoxyphenyl)-5-(6-oxo-1,6-dihydro-2-pyridinyl)-4H-1,2,4-triazol-3-yl)-3-(5-fluoro-2-pyrimidinyl)-2-butanesulfonamide], the pEC50 was 6.96.

`CCOc1cccc(-c2nnc(NS(=O)(=O)[C@@H](C)[C@H](OC)c3ncc(C)cn3)n2-c2c(OC)cccc2OC)n1` [Example 172.0, (1R,2S)-N-(4-(2,6-dimethoxyphenyl)-5-(6-ethoxypyridin-2-yl)-4H-1,2,4-triazol-3-yl)-1-methoxy-1-(5-methylpyrimidin-2-yl)propane-2-sulfonamide] was tested, and the pEC50 was 10.19.

Compound `CCc1cccc(-c2nnc(NS(=O)(=O)[C@@H](C)[C@H](OC)c3ncc(C)cn3)n2-c2c(OC)cccc2OC)n1` [Example 174.0, (1R,2S)-N-(4-(2,6-dimethoxyphenyl)-5-(6-ethylpyridin-2-yl)-4H-1,2,4-triazol-3-yl)-1-methoxy-1-(5-methylpyrimidin-2-yl)propane-2-sulfonamide] has a pEC50 of 9.70.

`CCc1cccc(-c2nnc(NS(=O)(=O)[C@@H](C)[C@H](O)c3ncc(C)cn3)n2-c2c(OC)cccc2OC)n1` [Example 175.0, (1R,2S)-N-(4-(2,6-dimethoxyphenyl)-5-(6-ethylpyridin-2-yl)-4H-1,2,4-triazol-3-yl)-1-hydroxy-1-(5-methylpyrimidin-2-yl)propane-2-sulfonamide] showed a pEC50 of 9.41.

`CCc1cccc(-c2nnc(NS(=O)(=O)[C@@H](C)[C@H](C)c3ncc(C)cn3)n2-c2c(OC)cccc2OC)n1` [Example 176.0, (2S,3R)-N-(4-(2,6-dimethoxyphenyl)-5-(6-ethylpyridin-2-yl)-4H-1,2,4-triazol-3-yl)-3-(5-methylpyrimidin-2-yl)butane-2-sulfonamide] showed a pEC50 of 9.82.

With `COc1cc(C)cc(-c2nnc(NS(=O)(=O)[C@@H](C)[C@H](C)c3ncc(F)cn3)n2-c2c(OC)cccc2OC)n1` [Example 177.0, (2S,3R)-N-(4-(2,6-dimethoxyphenyl)-5-(6-methoxy-4-methylpyridin-2-yl)-4H-1,2,4-triazol-3-yl)-3-(5-fluoropyrimidin-2-yl)butane-2-sulfonamide] the pEC50 was 9.92.

For `COc1cc(C)cc(-c2nnc(NS(=O)(=O)[C@@H](C)[C@H](C)c3ncc(C)cn3)n2-c2c(OC)cccc2OC)n1` [Example 178.0, (2S,3R)-N-(4-(2,6-dimethoxyphenyl)-5-(6-methoxy-4-methylpyridin-2-yl)-4H-1,2,4-triazol-3-yl)-3-(5-methylpyrimidin-2-yl)butane-2-sulfonamide], the pEC50 was 9.92.

For `COc1cc(C)cc(-c2nnc(NS(=O)(=O)[C@@H](C)[C@H](OC)c3ncc(C)cn3)n2-c2c(OC)cccc2OC)n1` [Example 179.0, (1R,2S)-N-(4-(2,6-dimethoxyphenyl)-5-(6-methoxy-4-methylpyridin-2-yl)-4H-1,2,4-triazol-3-yl)-1-methoxy-1-(5-methylpyrimidin-2-yl)propane-2-sulfonamide], the pEC50 was 8.32.

For `CCOc1cccc(-c2nnc(NS(=O)(=O)[C@@H](C)[C@H](C)c3ncc(C)cn3)n2-c2c(OC)cccc2OC)n1` [Example 180.0, (2S,3R)-N-(4-(2,6-dimethoxyphenyl)-5-(6-ethoxypyridin-2-yl)-4H-1,2,4-triazol-3-yl)-3-(5-methylpyrimidin-2-yl)butane-2-sulfonamide], the pEC50 was 10.17.

For `COc1cccc(OC)c1-n1c(NS(=O)(=O)CCc2ccc(F)cc2C#N)nnc1-c1cncc(Cl)c1` [Example 181.0, N-(5-(5-chloro-3-pyridinyl)-4-(2,6-dimethoxyphenyl)-4H-1,2,4-triazol-3-yl)-2-(2-cyano-4-fluorophenyl)ethanesulfonamide], the pEC50 was 7.92.

`COc1cccc(OC)c1-n1c(NS(=O)(=O)[C@@H](C)[C@H](C)c2ncc(F)cn2)nnc1-c1cccc(OCC(F)(F)F)n1` [Example 185.0, (2S,3R)-N-(4-(2,6-dimethoxyphenyl)-5-(6-(2,2,2-trifluoroethoxy)pyridin-2-yl)-4H-1,2,4-triazol-3-yl)-3-(5-fluoropyrimidin-2-yl)butane-2-sulfonamide] showed a pEC50 of 9.92.

In the case of `COc1cccc(OC)c1-n1c(NS(=O)(=O)[C@@H](C)[C@H](C)c2ncc(F)cn2)nnc1-c1cccc(OCCO)n1` [Example 186.0, (2S,3R)-N-(4-(2,6-dimethoxyphenyl)-5-(6-(2-hydroxyethoxy)pyridin-2-yl)-4H-1,2,4-triazol-3-yl)-3-(5-fluoropyrimidin-2-yl)butane-2-sulfonamide], the pEC50 was 9.92.

`COc1cccc(OC)c1-n1c(NS(=O)(=O)[C@@H](C)[C@H](OC)c2ncc(C)cn2)nnc1-c1cccc(OCC(F)(F)F)n1` [Example 187.0, (1R,2S)-N-(4-(2,6-dimethoxyphenyl)-5-(6-(2,2,2-trifluoroethoxy)pyridin-2-yl)-4H-1,2,4-triazol-3-yl)-1-methoxy-1-(5-methylpyrimidin-2-yl)propane-2-sulfonamide] showed a pEC50 of 9.85.

In the case of `COc1cccc(OC)c1-n1c(NS(=O)(=O)[C@@H](C)[C@H](OC)c2ncc(C)cn2)nnc1-c1cccc(OCCO)n1` [Example 188.0, (1R,2S)-N-(4-(2,6-dimethoxyphenyl)-5-(6-(2-hydroxyethoxy)pyridin-2-yl)-4H-1,2,4-triazol-3-yl)-1-methoxy-1-(5-methylpyrimidin-2-yl)propane-2-sulfonamide], the pEC50 was 9.02.
